target: T1, N-terminally GST-tagged human full length recombinant Mps-1 kinase (Homo sapiens, UniProt P33981); test: Mps-1 kinase assay (TR-FRET); type: biochemical; conditions: Mps1 IC50 [nM], 10 μM ATP, 1 μM peptide substrate, 60 min at 22° C.
T1 construct: N-terminally GST-tagged human full length recombinant Mps-1 kinase; purchased Invitrogen, Karslruhe, Germany PV4071
T1 sequence (P33981 1-857): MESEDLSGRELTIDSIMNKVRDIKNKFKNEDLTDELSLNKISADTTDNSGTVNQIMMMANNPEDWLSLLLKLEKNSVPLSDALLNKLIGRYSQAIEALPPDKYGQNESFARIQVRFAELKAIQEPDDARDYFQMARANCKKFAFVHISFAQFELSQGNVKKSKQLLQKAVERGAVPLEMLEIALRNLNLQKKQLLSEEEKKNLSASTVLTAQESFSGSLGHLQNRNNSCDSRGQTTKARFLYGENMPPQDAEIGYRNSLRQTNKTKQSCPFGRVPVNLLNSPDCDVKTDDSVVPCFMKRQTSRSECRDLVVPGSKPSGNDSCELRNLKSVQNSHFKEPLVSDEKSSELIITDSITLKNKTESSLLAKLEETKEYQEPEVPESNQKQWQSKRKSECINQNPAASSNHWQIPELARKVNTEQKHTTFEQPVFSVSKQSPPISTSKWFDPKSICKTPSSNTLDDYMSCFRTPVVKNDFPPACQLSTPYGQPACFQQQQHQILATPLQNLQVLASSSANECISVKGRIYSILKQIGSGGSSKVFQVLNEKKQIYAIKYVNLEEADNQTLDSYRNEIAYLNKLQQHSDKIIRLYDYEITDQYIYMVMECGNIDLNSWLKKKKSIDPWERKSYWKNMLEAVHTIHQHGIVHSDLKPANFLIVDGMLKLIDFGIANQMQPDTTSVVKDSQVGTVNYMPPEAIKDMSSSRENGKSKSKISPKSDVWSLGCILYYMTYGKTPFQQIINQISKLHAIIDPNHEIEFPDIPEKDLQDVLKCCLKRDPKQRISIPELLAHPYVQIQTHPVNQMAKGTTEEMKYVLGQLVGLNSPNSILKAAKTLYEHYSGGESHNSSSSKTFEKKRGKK
In short: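 TR-FRET signal between a Europium anti-phospho-Ser/Thr antibody and streptavidin-XLent reported phosphorylation of a biotinylated peptide by GST-tagged full-length Mps-1. Enzyme was near 1 nM final, chosen per lot for linearity.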

Row | Compound | IC50
1 | Cc1cc(-c2cnc3c(NCCC(F)(F)F)cc(Oc4cccc5c4NCCC5)nn23)ccc1C(=O)NC1CC1 [Example 466, N-cyclopropyl-2-methyl-4-{6-(1,2,3,4-tetrahydro-quinolin-8-yloxy)-8-[(3,3,3-trifluoropropyl)amino]imidazo[1,2-b]pyridazin-3-yl} benzamide] | 4.8 nM
2 | CC(C)CNc1cc(Cl)nn2c(-c3ccc(C(=O)NC(C)C)cc3)cnc12 [Example 179, 4-{6-Chloro-8-[(2-methylpropyl)amino]imidazo[1,2-b]pyridazin-3-yl}-N-(propan-2-yl)benzamide] | 601 nM
3 | CNC(=O)c1ccc(-c2cnc3c(NCC4CCOCC4)cc(Oc4cccc(F)c4)nn23)cc1C [Example 569, 4-{6-(3-fluorophenoxy)-8-[(tetrahydro-2H-pyran-4-ylmethyl)amino]imidazo[1,2-b]pyridazin-3-yl}-N,2-dimethylbenzamide] | < 1 nM
4 | CC(C)CNc1cc(-c2ccnn2C)nn2c(-c3ccc(C(=O)NC4CC4)cc3)cnc12 [Example 137, N-cyclopropyl-4-{8-[(2-methylpropyl)amino]-6-(1-methyl-1H-pyrazol-5-yl)imidazo[1,2-b]pyridazin-3-yl}benzamide] | < 1 nM
5 | Cc1c[nH]c(Sc2cc(NCC(C)(C)O)c3ncc(-c4ccc(C(=O)NC5CC5)c(C)c4)n3n2)n1 [Example 317, N-cyclopropyl-4-{8-[(2-hydroxy-2-methylpropyl)amino]-6-[(4-methyl-1H-imidazol-2-yl)sulfanyl]imidazo[1,2-b]pyridazin-3-yl}-2-methylbenzamide] | 7.4 nM
6 | c1cc(-c2cc(NC[C@@H]3CCCO3)c3ncc(-c4ccc(-c5cnc(C6CC6)[nH]5)cc4)n3n2)ccn1 [Example 4, 3-[4-(2-Cyclopropyl-1H-imidazol-5-yl)phenyl]-6-(pyridin-4-yl)-N-[(2S)-tetrahydrofuran-2-ylmethyl]imidazo[1,2-b]pyridazin-8-amine] | 20.6 nM
7 | CNC(=O)c1ccc(-c2cnc3c(NCCC(F)(F)F)cc(Oc4cccc(F)c4)nn23)cc1C [Example 575, 4-{6-(3-fluorophenoxy)-8-[(3,3,3-trifluoropropyl)a-mino]imidazo[1,2-b]pyridazin-3-yl}-N,2-dimethylbenzamide] | < 1 nM
8 | Cc1cc(-c2cnc3c(NCC4(C)CCCO4)cc(-c4ccncc4)nn23)ccc1C(=O)NC1CC1 (racemic) [Example 30, (RS)—N-cyclopropyl-2-methyl-4-[8-{[(2-methyltetrahydrofuran-2-yl)methyl]amino}-6-(pyridin-4-yl)imidazo[1,2-b]pyridazin-3-yl]benzamide] | 2.1 nM
9 | Cc1cc(-c2cnc3c(NCC(C)(C)O)cc(N4CCCCC4)nn23)ccc1C(=O)NC1CC1 [Example 337, N-cyclopropyl-4-{8-[(2-hydroxy-2-methylpropyl)amino]-6-(piperidin-1-yl)imidazo[1,2-b]pyridazin-3-yl}-2-methyl-benzamide] | 3.9 nM
10 | Cc1cc(-c2cnc3c(NCC(C)(C)O)cc(Nc4ccc(F)cc4)nn23)ccc1C(=O)NC1CC1 [Example 305, N-cyclopropyl-4-{6-[(4-fluorophenyl)amino]-8-[(2-hydroxy-2-methylpropyl)amino]imidazo[1,2-b]pyridazin-3-yl}-2-methylbenzamide] | 0.6 nM
11 | CC(C)(O)CNc1cc(-c2ccncc2)nn2c(-c3ccc(C(=S)NC4CC4)cc3)cnc12 [Example 47, N-cyclopropyl-4-{8-[(2-hydroxy-2-methylpropyl)amino]-6-(pyridin-4-yl)imidazo[1,2-b]pyridazin-3-yl}benzenecarbothioamide] | 2 nM

The next lines start with the values.

Row | IC50 | Compound
12 | 0.3 nM | CC(C)(O)CNc1cc(Oc2cccc(F)c2)nn2c(-c3ccc(C(=S)NC4CC4)cc3)cnc12 [Example 244, N-cyclopropyl-4-{6-(3-fluorophenoxy)-8-[(2-hydroxy-2-methylpropyl)amino]imidazo[1,2-b]pyridazin-3-yl}benzenecarbothioamide]
13 | 0.4 nM | Cc1cc(Nc2cc(NCCC(F)(F)F)c3ncc(-c4ccc(C(=O)NC5CC5)c(C)c4)n3n2)ccc1F [Example 428, N-cyclopropyl-4-{6-[(4-fluoro-3-methylphenyl)amino]-8-[(3,3,3-trifluoropropyl)amino]imidazo[1,2-b]pyridazin-3-yl}-2-methylbenzamide]
14 | 0.2 nM | Cc1cc(-c2cnc3c(NCC(C)(C)N)cc(Oc4ccc(F)c(F)c4)nn23)ccc1C(=O)NC1CC1 [Example 520, 4-{8-[(2-amino-2-methylpropyl)amino]-6-(3,4-difluorophenoxy)imidazo[1,2-b]pyridazin-3-yl}-N-cyclopropyl-2-methylbenzamide]
15 | 0.2 nM | Cc1cc(-c2cnc3c(NCC4CCN(C)CC4)cc(Oc4cccc(F)c4)nn23)ccc1C(=O)NC1CC1 [Example 311, N-cyclopropyl-4-[6-(3-fluorophenoxy)-8-{[(1-methylpiperidin-4-yl)methyl]amino}imidazo[1,2-b]pyridazin-3-yl]-2-methyl-benzamide]
16 | 0.2 nM | CC(C)(O)CNc1cc(Sc2cccc(F)c2)nn2c(-c3ccc(C(=O)NC4CC4)cc3O)cnc12 [Example 62A, N-cyclopropyl-4-{6-[(3-fluorophenyl)sulfanyl]-8-[(2-hydroxy-2-methylpropyl)amino]imidazo[1,2-b]pyridazin-3-yl}-3-hydroxybenzamide]
17 | 0.1 nM | Cc1cc(-c2cnc3c(NCC4CCS(=O)(=O)CC4)cc(Oc4ccccc4F)nn23)ccc1C(=O)NC1CC1 [Example 297, N-cyclopropyl-4-[8-{[(1,1-dioxidotetrahydro-2H-thiopyran-4-yl)methyl]amino}-6-(2-fluorophenoxy)imidazo[1,2-b]pyridazin-3-yl]-2-methylbenzamide]
18 | 0.2 nM | Cc1cc(-c2cnc3c(NCCC(F)(F)F)cc(Sc4ccc(F)c(F)c4)nn23)ccc1C(=O)NC1CC1 [Example 249, N-cyclopropyl-4-{6-[(3,4-difluorophenyl)sulfanyl]-8-[(3,3,3-trifluoropropyl)amino]imidazo[1,2-b]pyridazin-3-yl}-2-methylbenzamide]
19 | 0.3 nM | Cc1cc(-c2cnc3c(NCCC(F)(F)F)cc(Nc4ccc(Cl)cc4)nn23)ccc1C(=O)NC1CC1 [Example 374, 4-{6-[(4-chlorophenyl)amino]-8-[(3,3,3-trifluoropropyl)amino]imidazo[1,2-b]pyridazin-3-yl}-N-cyclopropyl-2-methylbenzamide]
20 | < 0.1 nM | Cc1cc(-c2cnc3c(NCCO)cc(Oc4cccc(F)c4)nn23)ccc1C(=O)NC1CC1 [Example 277, N-cyclopropyl-4-{6-(3-fluorophenoxy)-8-[(2-hydroxyethyl)amino]imidazo[1,2-b]pyridazin-3-yl}-2-methylbenzamide]
21 | 0.3 nM | Cc1cc(-c2cnc3c(NCC4CCSCC4)cc(Oc4ccccc4F)nn23)ccc1C(=O)NC1CC1 [Example 283, N-cyclopropyl-4-{6-(2-fluorophenoxy)-8-[(tetrahydro-2H-thiopyran-4-ylmethyl)amino]imidazo[1,2-b]pyridazin-3-yl}-2-methylbenzamide]
22 | 0.3 nM | Cc1cc(-c2cnc3c(NCC(C)(C)N)cc(Oc4ccc(Cl)cc4)nn23)ccc1C(=O)NC1CC1 [Example 521, 4-{8-[(2-amino-2-methyl-propyl)amino]-6-(4-chloro-phenoxy)imidazo[1,2-b]pyridazin-3-yl}-N-cyclopropyl-2-methylbenzamide]

From US9255100B2 (BAYER INTELLECTUAL PROPERTY GMBH, priority 2010, dated 2016)
